# In US20120101230A1, “HIGH-DENSITY POLYMER SURFACE COATING TO IMMOBILIZE CHEMICAL OR BIOLOGICAL MOLECULES” (priority 2009, published 2012):
# Where a name gives a salt, the structure may show the parent alone.
# Columns and labels:
# avidin = avidin (Gallus gallus, UniProt P02701); experiment: Biotin binding to immobilized avidin on PAA surfaces
# Protocol: (§1) In order to immobilize protein to the novel surfaces, the high-density polymer surfaces of Examples 2 and 3 were activated by adding 0.34 M EDC/10 mM NHS in water for 10 min, followed by removing the solution. In an initial test of protein immobilization capability and protein activity following immobilization, biotin binding to immobilized streptavidin was used—20 μL of either 200 μg/ml avidin or streptavidin in a non-amine containing buffer (10 mM acetate buffer, pH 5.0) were added to the surface and incubated for 3 hr, followed by a wash first with the non-amine containing buffer, then PBS. Biotin was then added for binding to the immobilized avidin or streptavidin by using a 20 μL of a biotin solution in PBS to result in a final Biotin concentration of approximately 58 μM (N=4).
# (§2) 20 μL of either 0, 50, or 200 μg/ml avidin or streptavidin in a non-amine containing buffer were added to the wells after they were pre-activated for 10 min with EDC/NHS, and incubated for 3 hr. This was then followed by a wash first with the non-amine containing buffer. Biotin was then added for binding to the immobilized avidin or streptavidin by adding 20 μL of a biotin solution in PBS to result in a final Biotin concentration of approximately 58 μM (N=4).
# streptavidin = streptavidin (Streptomyces avidinii, UniProt P22629); experiment: Biotin binding to immobilized streptavidin on PAA surfaces
# Protocol: as §1, §2
# [1] = Streptavidin/avidin immobilization on high-density polymer (PAA) surfaces, SWS biosensor PWV shift; format: binding
# Protocol: as §1
# The initial test was followed up by reacting different concentrations of avidin or streptavidin with the different high-density polymer surfaces.
# as §2
# [2] = target: T1, recombinant human trypsin (Homo sapiens, UniProt P07477); experiment: Small molecule binding to trypsin-immobilized surface, PWV shift
# T1 construct: purchased Polymum Lot#H149L091.1
# Protocol: (§3) Trypsin was tested to determine what other proteins could be successfully immobilized on high-density polymer surfaces. Like above, high-density polymer surfaces were activated by adding 0.34 M EDC/10 mM NHS in water for 10 min, followed by removing the solution. 50 μg/ml trypsin in non-amine containing buffer was added to the wells, and was incubated for up to around 700 min, followed by a wash first with acetic buffer, then PBS. The trypsin was recombinant human protein from Polymum Lot#H149L091.1. The results of trypsin binding over time, as a function of delta PWV, are shown in FIG. 14, as well as an NHS control. 90% of the protein was immobilized within less than 2 hr. Benzamidine was then added for binding to the immobilized trypsin by adding benzamidine at a final concentration of 67 μM in PBS, pH 7.4. Benzamidine has a molecular weight of 120.15, and an expected delta PWV or PWV shift of 36 pm.
# (§4) Antipain was then added for binding to the low COOH density surfaces. 49.2, 12.3, 3.1, and 1 μM antipain dihydrochloride in PBS was prepared from a microbial source and was added to the 3.8 nm delta PWV shift from trypsin immobilization. 49.2 μM antipain was also added to no trypsin control wells (N=4). […] The theoretical shift of antipain of 1:1 binding on 3.8 nm delta PWV shift trypsin surface is […]. The control, 49.2 μM antipain in a well with no trypsin immobilization, had […] bulk or NSB PWV shift.
# (§5) Leupeptin was also added for binding to the low COOH density surfaces. 88, 22, 5.5, and 0 μM leupeptin dihydrochloride solutions in PBS were prepared and were added to the 3.8 nm delta PWV shift trypsin immobilization surfaces. 88 μM leupeptin was also added to no trypsin control wells (N=2). […] The theoretical shift of leupeptin of 1:1 binding on 3.8 nm delta PWV trypsin is […]. The control 88 μM leupeptin with no trypsin immobilization had 12 nm bulk or NSB shift.
# [3] = Bulk or NSB PWV shift in no trypsin control wells; conditions: 88 μM leupeptin, no trypsin immobilization
# Protocol: as §4, §5
# [4] = Trypsin immobilization on high-density polymer surfaces, delta PWV; format: binding; conditions: for course of immobilization: 10 mM acetate buffer pH 5.0, 3 hr
# Protocol: as §3
# Trypsin binding was also measured on both high and low COOH density surfaces. 100 μg of human recombinant trypsin in 10 mM acetate buffer pH 5.0 was immobilized on either a high or low COOH density surface for 3 hr.
# [5] = PAA coated under theta condition, biotin approximately 58 μM
# [6] = low COOH density surfaces (versus high)
# [7] = PAA 100K, high COOH density surface, coated with 1/6 dilution NHS/EDC (theta condition) compared to the other dilutions
# [8] = PAA 100K, low COOH density surface, coated with 1/6 dilution NHS/EDC (theta condition) compared to the other dilutions
# [9] = PAA 250K, high COOH density surface, coated with 1/6 and 1/8 dilution NHS/EDC (theta condition) compared to the other dilutions
# [10] = PAA 250K, low COOH density surface, coated with 1/6 and 1/8 dilution NHS/EDC (theta condition) compared to the other dilutions
# Sequence of streptavidin (P22629 25-183, species assumed): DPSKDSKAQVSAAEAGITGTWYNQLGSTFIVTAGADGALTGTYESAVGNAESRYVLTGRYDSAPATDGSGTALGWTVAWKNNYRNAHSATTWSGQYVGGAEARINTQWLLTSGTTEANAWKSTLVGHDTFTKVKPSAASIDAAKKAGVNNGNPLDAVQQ
# Sequence of avidin (P02701 25-152, species assumed): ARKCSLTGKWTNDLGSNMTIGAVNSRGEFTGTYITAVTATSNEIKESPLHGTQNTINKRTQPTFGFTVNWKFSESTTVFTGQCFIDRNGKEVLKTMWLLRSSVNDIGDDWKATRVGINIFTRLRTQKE
compound,measurement,setting,value
O=C(O)CCCC[C@@H]1SC[C@@H]2NC(=O)N[C@@H]21 [Biotin],biotin binding,avidin; [5],higher biotin binding
same,activity of avidin for biotin interaction,avidin; [6],more activity
same,biotin binding,streptavidin; [5],higher biotin binding
same,activity of streptavidin for biotin interaction,streptavidin; [6],more activity
streptavidin,protein immobilization (PWV),[1]; [7],More streptavidin was immobilized
same,protein immobilization (PWV),[1]; [8],More streptavidin was immobilized
same,protein immobilization (PWV),[1]; [9],More streptavidin was immobilized
same,protein immobilization (PWV),[1]; [10],More streptavidin was immobilized
"CC(=O)N[C@@H](CC(C)C)C(=O)N[C@@H](CC(C)C)C(=O)N[C@H](C=O)CCCNC(=N)N [leupeptin, leupeptin dihydrochloride]",binding to immobilized trypsin (titration),[2]; 3.8 nm delta PWV trypsin on low COOH density surface,Titration of leupeptin was observed
same,binding to immobilized trypsin,[2]; 7.2 nm delta PWV trypsin on high COOH density surface,No positive result was observed
same,theoretical shift of 1:1 binding,[2]; on 3.8 nm delta PWV shift trypsin surface,66 nm
same,bulk or NSB shift,[3],12 nm
N=C(N)c1ccccc1 [Benzamidine],expected delta PWV or PWV shift,"[2]; benzamidine 67 μM in PBS, pH 7.4",36 pm
avidin,protein immobilization (PWV),[1]; [7],More avidin was immobilized
same,protein immobilization (PWV),[1]; [8],More avidin was immobilized
same,protein immobilization (PWV),[1]; [9],More avidin was immobilized
same,protein immobilization (PWV),[1]; [10],More avidin was immobilized
trypsin,time within which 90% of the protein was immobilized,[4]; 50 μg/ml trypsin in non-amine containing buffer,less than 2 hr
same,delta PWV of trypsin immobilization,[4]; high COOH density surface,7.2 nm
same,course of immobilization,[4]; high COOH density surface,immobilized rapidly
same,delta PWV of trypsin immobilization,[4]; low COOH density surface,3.8 nm
same,course of immobilization,[4]; low COOH density surface,slow but rising constantly
